Data: patent publication US20230265116A1, “DEGRADATION OF (EGFR) BY CONJUGATION OF EGFR INHIBITORS WITH E3 LIGASE LIGAND AND METHODS OF USE” (BEIGENE, LTD., priority 2020, published 2023)
Like-named read-outs stand apart in the source and are kept apart here.

What was measured:
[1] = system: EGFR Del19/T790M/C797S (H1975-clone #28); assay: EGFR degradation HTRF assay, H1975-clone #28 DTC cells; type: cell-based
Procedure, shortened: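 H1975 clones stably overexpressing mutant EGFR, with endogenous EGFR knocked out by sgRNA and homozygosity confirmed by sequencing, were treated 16h at 37° C. with compounds in 0.2% DMSO (top final 10 uM, 5-fold, 8 doses). Lysates were read by HTRF (665/620 nm); DC50 and Dmax came from fitting % degradation versus DMSO control.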

[2] = target: T1, EGFR L858R/T790M/C797S (BaF3-LTC cells) (Homo sapiens, UniProt P00533, C797S/L858R/T790M); assay: EGFR degradation HTRF assay, BaF3-LTC cells; type: cell-based
T1 construct: expressed in transfected cells; host or cells: BaF3
T1 sequence (P00533 25-1210 T790M/C797S/L858R): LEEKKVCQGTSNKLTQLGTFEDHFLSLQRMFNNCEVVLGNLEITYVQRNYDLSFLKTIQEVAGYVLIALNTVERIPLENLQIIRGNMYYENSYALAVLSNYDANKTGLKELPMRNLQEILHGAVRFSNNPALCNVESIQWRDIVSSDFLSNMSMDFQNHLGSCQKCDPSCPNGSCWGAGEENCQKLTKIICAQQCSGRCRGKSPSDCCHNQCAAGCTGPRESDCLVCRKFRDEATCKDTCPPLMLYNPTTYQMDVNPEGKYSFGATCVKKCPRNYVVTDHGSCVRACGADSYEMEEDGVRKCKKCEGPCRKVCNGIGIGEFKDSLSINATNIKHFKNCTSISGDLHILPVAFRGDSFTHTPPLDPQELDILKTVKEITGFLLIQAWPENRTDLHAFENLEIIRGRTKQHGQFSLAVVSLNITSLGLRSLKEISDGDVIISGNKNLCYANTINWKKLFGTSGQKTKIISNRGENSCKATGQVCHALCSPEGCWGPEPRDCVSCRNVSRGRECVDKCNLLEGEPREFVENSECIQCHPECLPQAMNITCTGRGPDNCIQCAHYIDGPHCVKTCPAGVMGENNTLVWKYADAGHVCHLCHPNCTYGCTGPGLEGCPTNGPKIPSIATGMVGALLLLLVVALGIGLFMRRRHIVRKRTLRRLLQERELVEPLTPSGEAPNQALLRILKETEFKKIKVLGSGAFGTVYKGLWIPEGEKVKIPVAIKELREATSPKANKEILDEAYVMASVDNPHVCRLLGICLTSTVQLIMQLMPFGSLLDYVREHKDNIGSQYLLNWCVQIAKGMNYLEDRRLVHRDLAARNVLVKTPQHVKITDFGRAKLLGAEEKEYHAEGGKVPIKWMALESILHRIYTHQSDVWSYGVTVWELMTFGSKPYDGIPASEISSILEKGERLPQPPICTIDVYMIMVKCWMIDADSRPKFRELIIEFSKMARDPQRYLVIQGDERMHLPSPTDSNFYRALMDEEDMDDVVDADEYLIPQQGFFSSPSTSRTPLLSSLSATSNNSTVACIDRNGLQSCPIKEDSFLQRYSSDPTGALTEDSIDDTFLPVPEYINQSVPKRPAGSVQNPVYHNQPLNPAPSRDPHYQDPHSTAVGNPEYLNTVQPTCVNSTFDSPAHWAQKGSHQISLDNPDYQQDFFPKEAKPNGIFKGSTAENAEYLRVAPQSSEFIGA
Procedure, shortened: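 EGFR remaining after a 16 h, 37 °C exposure (8 doses, 5-fold steps from 10 uM final, 0.2% DMSO) was quantified by HTRF antibodies in cell lysate. Percent inhibition relative to DMSO control was fitted by four-parameter logistic to give DC50; Dmax denotes maximal degradation.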

[3] = H1975 # 28 DTC cells; EGFR degradation, IC50 (DC50) from curve fit; read-out: DC50(nM) H1975 # 28 DTC
[4] = H1975 # 28 DTC cells; maximum percentage of inhibition (degradation)
[5] = BaF3-LTC cells; EGFR degradation, IC50 (DC50) from curve fit; read-out: DC50(nM) BaF3-LTC
[6] = BaF3-LTC cells; maximum percentage of inhibition (degradation); read-out: Dmax (%) BaF3-LTC
[7] = read-out: DC50(nM) H1975 # 28 DTC; H1975 # 28 DTC cells; EGFR degradation, IC50 (DC50) from curve fit
[8] = read-out: DC50(nM) BaF3-LTC; BaF3-LTC cells; EGFR degradation, IC50 (DC50) from curve fit
[9] = read-out: Dmax (%) BaF3-LTC, BaF3-LTC cells; maximum percentage of inhibition (degradation)

DC50 [1, 3] | DC50 [2, 5] | Dmax [2, 6] | Structure (SMILES) | Dmax (%) H1975 # 28 DTC [1, 4] | DC50 [1, 7] | DC50 [2, 8] | Dmax [2, 9]
1.07 nM | 14.2 nM | 86.8% | CCc1cc(Nc2ncc(Br)c(Nc3ccc4nc(C)ccc4c3P(C)(C)=O)n2)c(OC2CC2)cc1N1CCC(N2CCN(CCCc3cc(F)cc4c3oc(=O)n4C3CCC(=O)NC3=O)CC2)CC1 (stereo not drawn) [Example 607, 3-(7-(3-(4-(1-(4-((5-bromo-4-((5-(dimethylphosphoryl)-2-methylquinolin-6-yl)amino)pyrimidin-2-yl)amino)-5-cyclopropoxy-2-ethylphenyl)piperidin-4-yl)piperazin-1-yl)propyl)-5-fluoro-2-oxobenzo[d]oxazol-3(2H)-yl)piperidine-2,6-dione] | 78.76% | – | – | –
0.787 nM | 5.29 nM | 95% | CCc1cc(Nc2ncc(Br)c(Nc3ccc4nc(C)sc4c3P(C)(C)=O)n2)c(OC)cc1N1CCC(N2CCN(C(=O)[C@@H]3CCN(c4cc(F)c([C@H]5CCC(=O)NC5=O)c(F)c4)C3)CC2)CC1 [Example 685, (R)-3-(4-((R)-3-(4-(1-(4-((5-bromo-4-((7-(dimethylphosphoryl)-2-methylbenzo[d]thiazol-6-yl)amino)pyrimidin-2-yl)amino)-2-ethyl-5-methoxyphenyl)piperidin-4-yl)piperazine-1-carbonyl)pyrrolidin-1-yl)-2,6-difluorophenyl)piperidine-2,6-dione] | 83.23% | – | – | –
0.735 nM | 5.13 nM | 92.3% | CCc1ccc2c(P(C)(C)=O)c(Nc3nc(Nc4cc(CC)c(N5CCC(N6CCN(CCc7cccc8c7n(C7CC7)c(=O)n8C7CCC(=O)NC7=O)CC6)CC5)cc4OC)ncc3Br)ccc2n1 (stereo not drawn) [Example 454, 3-(4-(2-(4-(1-(4-((5-bromo-4-((5-(dimethylphosphoryl)-2-ethylquinolin-6-yl)amino)pyrimidin-2-yl)amino)-2-ethyl-5-methoxyphenyl)piperidin-4-yl)piperazin-1-yl)ethyl)-3-cyclopropyl-2-oxo-2,3-dihydro-1H-benzo[d]imidazol-1-yl)piperidine-2,6-dione] | 78.41% | – | – | –
1.13 nM | 5.59 nM | – | COc1cc(N2CCC(N3CCN(C(=O)[C@H]4CN(c5cc(F)c([C@H]6CCC(=O)NC6=O)c(F)c5)CC4(C)C)CC3)CC2)c(C)cc1Nc1ncc(Br)c(Nc2ccc3nc(C)c(F)cc3c2P(C)(C)=O)n1 [Example 729, (R)-3-(4-((R)-4-(4-(1-(4-((5-bromo-4-((5-(dimethylphosphoryl)-3-fluoro-2-methylquinolin-6-yl)amino)pyrimidin-2-yl)amino)-5-methoxy-2-methylphenyl)piperidin-4-yl)piperazine-1-carbonyl)-3,3-dimethylpyrrolidin-1-yl)-2,6-difluorophenyl)piperidine-2,6-dione] | 88.94% | – | – | –
1.57 nM | 7.62 nM | 91.2% | CCOc1cc(N2CCC(N3CCN(CCc4ccc(F)c5c4n(CC)c(=O)n5C4CCC(=O)NC4=O)CC3)CC2)c(CC)cc1Nc1ncc(Br)c(Nc2cc(F)c3nc(CC)ccc3c2P(C)(C)=O)n1 (stereo not drawn) [Example 603, 3-(4-(2-(4-(1-(4-((5-bromo-4-((5-(dimethylphosphoryl)-2-ethyl-8-fluoroquinolin-6-yl)amino)pyrimidin-2-yl)amino)-5-ethoxy-2-ethylphenyl)piperidin-4-yl)piperazin-1-yl)ethyl)-3-ethyl-7-fluoro-2-oxo-2,3-dihydro-1H-benzo[d]imidazol-1-yl)piperidine-2,6-dione] | 81.2% | – | – | –
– | – | – | CCc1cnc2c(P(C)(C)=O)c(Nc3nc(Nc4cc(CC)c(N5CCC(N6CCN(CCc7ccc8c(c7)oc(=O)n8C7CCC(=O)NC7=O)CC6)CC5)cc4OC)ncc3Br)ccc2n1 (stereo not drawn) [Example 548, 3-(6-(2-(4-(1-(4-((5-bromo-4-((5-(dimethylphosphoryl)-2-ethylquinoxalin-6-yl)amino)pyrimidin-2-yl)amino)-2-ethyl-5-methoxyphenyl)piperidin-4-yl)piperazin-1-yl)ethyl)-2-oxobenzo[d]oxazol-3(2H)-yl)piperidine-2,6-dione] | 74.38% | 0.696 nM | 3.63 nM | 91.8%
3.01 nM | 13.2 nM | 92% | CCOc1cc(N2CCC(N3CCN(CCCc4cc(F)c([C@H]5CCC(=O)NC5=O)c(F)c4)CC3)CC2)c(CC)cc1Nc1ncc(Br)c(Nc2cc(F)c3nc(CC)ccc3c2P(C)(C)=O)n1 [Example 567, (R)-3-(4-(3-(4-(1-(4-((5-bromo-4-((5-(dimethylphosphoryl)-2-ethyl-8-fluoroquinolin-6-yl)amino)pyrimidin-2-yl)amino)-5-ethoxy-2-ethylphenyl)piperidin-4-yl)piperazin-1-yl)propyl)-2,6-difluorophenyl)piperidine-2,6-dione] | 56.23% | – | – | –
– | – | – | CCOc1cc(N2CCC(N3CCN(C(=O)[C@@H]4CCN(c5cc(F)cc6c5oc(=O)n6C5CCC(=O)NC5=O)C4)CC3)CC2)c(CC)cc1Nc1ncc(Br)c(Nc2ccc3nc(CC)ccc3c2P(C)(C)=O)n1 (stereo partly drawn) [Example 477, 3-(7-((R)-3-(4-(1-(4-((5-bromo-4-((5-(dimethylphosphoryl)-2-ethylquinolin-6-yl)amino)pyrimidin-2-yl)amino)-5-ethoxy-2-ethylphenyl)piperidin-4-yl)piperazine-1-carbonyl)pyrrolidin-1-yl)-5-fluoro-2-oxobenzo[d]oxazol-3(2H)-yl)piperidine-2,6-dione] | 73.35% | 4.24 nM | 7.16 nM | 82.7%
1.89 nM | 7.36 nM | 94.5% | CCOc1cc(N2CCC(N3CCN(CCc4ccc5c(oc(=O)n5C5CCC(=O)NC5=O)c4F)CC3)CC2)c(CC)cc1Nc1ncc(Br)c(Nc2ccc3nc(CC)ccc3c2P(C)(C)=O)n1 (stereo not drawn) [Example 555, 3-(6-(2-(4-(1-(4-((5-bromo-4-((5-(dimethylphosphoryl)-2-ethylquinolin-6-yl)amino)pyrimidin-2-yl)amino)-5-ethoxy-2-ethylphenyl)piperidin-4-yl)piperazin-1-yl)ethyl)-7-fluoro-2-oxobenzo[d]oxazol-3(2H)-yl)piperidine-2,6-dione] | 77.45% | – | – | –
0.655 nM | 3.25 nM | 92.5% | CCc1ccc2c(P(C)(C)=O)c(Nc3nc(Nc4cc(CC)c(N5CCC(N6CCN(CCc7cc8oc(=O)n(C9CCC(=O)NC9=O)c8cc7F)CC6)CC5)cc4OC)ncc3Br)ccc2n1 (stereo not drawn) [Example 457, 3-(6-(2-(4-(1-(4-((5-bromo-4-((5-(dimethylphosphoryl)-2-ethylquinolin-6-yl)amino)pyrimidin-2-yl)amino)-2-ethyl-5-methoxyphenyl)piperidin-4-yl)piperazin-1-yl)ethyl)-5-fluoro-2-oxobenzo[d]oxazol-3(2H)-yl)piperidine-2,6-dione] | 74.18% | – | – | –
3.22 nM | 19.7 nM | 90.4% | CCc1ccc2c(P(C)(C)=O)c(Nc3nc(Nc4cc(CC)c(N5CCC(N6CCN(C(=O)[C@@H]7CCN(c8cc(F)c(C9CCC(=O)NC9=O)c(F)c8)C7)CC6)CC5)cc4OC)ncc3Br)ccc2n1 (stereo partly drawn) [Example 515, 3-(4-((R)-3-(4-(1-(4-((5-bromo-4-((5-(dimethylphosphoryl)-2-ethylquinolin-6-yl)amino)pyrimidin-2-yl)amino)-2-ethyl-5-methoxyphenyl)piperidin-4-yl)piperazine-1-carbonyl)pyrrolidin-1-yl)-2,6-difluorophenyl)piperidine-2,6-dione] | 66.35% | – | – | –
1.23 nM | 9.13 nM | 94.5% | CCOc1cc(N2CCC(N3CCN(CCc4cc5oc(=O)n(C6CCC(=O)NC6=O)c5cc4Cl)CC3)CC2)c(CC)cc1Nc1ncc(Br)c(Nc2ccc3nc(CC)ccc3c2P(C)(C)=O)n1 (stereo not drawn) [Example 627, 3-(6-(2-(4-(1-(4-((5-bromo-4-((5-(dimethylphosphoryl)-2-ethylquinolin-6-yl)amino)pyrimidin-2-yl)amino)-5-ethoxy-2-ethylphenyl)piperidin-4-yl)piperazin-1-yl)ethyl)-5-chloro-2-oxobenzo[d]oxazol-3(2H)-yl)piperidine-2,6-dione] | 76.26% | – | – | –
1.54 nM | 7.47 nM | 90.2% | CCOc1cc(N2CCC(N3CCN(CC4CN(c5cccc6c5oc(=O)n6C5CCC(=O)NC5=O)C4)CC3)CC2)c(CC)cc1Nc1ncc(Br)c(Nc2cc(F)c3nc(CC)ccc3c2P(C)(C)=O)n1 (stereo not drawn) [Example 562, 3-(7-(3-((4-(1-(4-((5-bromo-4-((5-(dimethylphosphoryl)-2-ethyl-8-fluoroquinolin-6-yl)amino)pyrimidin-2-yl)amino)-5-ethoxy-2-ethylphenyl)piperidin-4-yl)piperazin-1-yl)methyl)azetidin-1-yl)-2-oxobenzo[d]oxazol-3(2H)-yl)piperidine-2,6-dione] | 77.73% | – | – | –
